Molecules are shown by their SMILES.

Assay [1] has as its target T1, ERα (Estrogen Receptor α) (Homo sapiens, UniProt P03372).
T1 construct: gene ESR1; purified ERα supplied with the PolarScreen kit (Invitrogen); construct not described
T1 sequence (P03372 1-595): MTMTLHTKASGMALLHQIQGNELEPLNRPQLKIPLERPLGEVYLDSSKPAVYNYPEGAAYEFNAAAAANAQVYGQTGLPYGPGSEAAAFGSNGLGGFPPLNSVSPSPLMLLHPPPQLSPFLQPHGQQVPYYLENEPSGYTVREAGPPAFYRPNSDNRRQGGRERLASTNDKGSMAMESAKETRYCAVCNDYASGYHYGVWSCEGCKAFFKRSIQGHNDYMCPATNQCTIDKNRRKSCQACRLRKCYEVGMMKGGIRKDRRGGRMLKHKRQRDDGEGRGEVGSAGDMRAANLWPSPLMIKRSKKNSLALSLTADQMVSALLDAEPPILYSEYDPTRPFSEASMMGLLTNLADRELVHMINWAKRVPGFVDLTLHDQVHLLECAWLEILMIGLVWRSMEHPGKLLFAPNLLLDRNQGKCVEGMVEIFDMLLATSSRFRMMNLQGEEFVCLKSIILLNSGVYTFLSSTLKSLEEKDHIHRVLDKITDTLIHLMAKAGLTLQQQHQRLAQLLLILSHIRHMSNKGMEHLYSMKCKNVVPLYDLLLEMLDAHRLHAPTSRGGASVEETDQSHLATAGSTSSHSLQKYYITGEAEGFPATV
The experiment in a line: fluorescence polarization competition (PolarScreen). Conditions: read-out: ERα Binding IC50 μM ^1. From the text:
fluorescence polarization competition (PolarScreen) on ERα (Estrogen Receptor α)
(In general: Fluorescence polarisation rises when a labelled molecule tumbles more slowly, as on binding a larger partner.)

The target of a further assay is T2, aromatase (AR; CYP19A) (Homo sapiens, UniProt P11511).
T2 construct: gene CYP19A1; construct not described
T2 sequence (P11511 1-503): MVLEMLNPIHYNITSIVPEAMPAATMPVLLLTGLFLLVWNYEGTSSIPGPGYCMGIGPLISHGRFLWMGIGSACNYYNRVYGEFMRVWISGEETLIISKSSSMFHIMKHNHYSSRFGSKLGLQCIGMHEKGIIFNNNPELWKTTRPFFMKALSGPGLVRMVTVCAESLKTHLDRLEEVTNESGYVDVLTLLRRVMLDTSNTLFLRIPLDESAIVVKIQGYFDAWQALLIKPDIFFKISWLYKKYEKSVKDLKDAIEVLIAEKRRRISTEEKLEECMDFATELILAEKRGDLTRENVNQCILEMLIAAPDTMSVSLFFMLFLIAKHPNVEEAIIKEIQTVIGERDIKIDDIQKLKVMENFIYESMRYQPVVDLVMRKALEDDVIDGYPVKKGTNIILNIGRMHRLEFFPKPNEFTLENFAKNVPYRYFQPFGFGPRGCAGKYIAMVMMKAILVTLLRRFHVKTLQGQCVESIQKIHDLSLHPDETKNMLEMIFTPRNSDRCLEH
The experiment in a line: fluorometric aromatase inhibition kit. The format is biochemical. Particulars: read-out: AR Inhibition IC50 μM ^1. From the text: fluorometric aromatase inhibition kit on aromatase (AR; CYP19A)

In the case of `O=c1c(C(c2ccc([N+](=O)[O-])cc2)n2ccnc2)coc2ccccc12` (racemic) [3a], the IC50 in assay [1] was more than 10 µM.

Turning to `O=c1c(C(c2ccccc2)n2ccnc2)coc2ccccc12` (racemic) [3b, 3-((1H-imidazol-1-yl)(phenyl)methyl)-4H-chromen-4-one], the results for the IC50 (in assay [1]; on aromatase (AR; CYP19A)) were 0.31 µM and 0.5 µM, respectively.

With `O=c1c(C(c2ccc([N+](=O)[O-])cc2)n2ccnc2)coc2cc(O)ccc12` (racemic) [4a, 3-((1H-imidazol-1-yl)(4-nitrophenyl)methyl)-7-hydroxy-4H-chromen-4-one], the values for the IC50 (in assay [1]; on aromatase (AR; CYP19A)) were 0.595 µM and 0.122 µM, respectively.

Turning to `O=c1c(C(c2ccccc2)n2ccnc2)coc2cc(O)ccc12` (racemic) [4b, 3-((1H-imidazol-1-yl)(phenyl)methyl)-7-hydroxy-4H-chromen-4-one], the IC50 in assay [1] was 0.203 µM; at aromatase (AR; CYP19A), 2.2 µM.

With `O=c1c(Cn2ccnc2)c(-c2ccc([N+](=O)[O-])cc2)oc2ccccc12` [1a], the IC50 in assay [1] is more than 10 µM.

In the case of `O=c1c(Cn2ccnc2)c(-c2ccccc2)oc2ccccc12` [1b], the IC50 in assay [1] is more than 10 µM.

`O=c1c(Cn2ccnc2)c(-c2ccc([N+](=O)[O-])cc2)oc2cc(O)ccc12` [2a, 3-((1H-imidazol-1-yl)methyl)-7-hydroxy-2-(4-nitrophenyl)-4H-chromen-4-one]: the IC50 is more than 10 µM in assay [1] and 2.1 µM at aromatase (AR; CYP19A).

Turning to `O=c1c(Cn2ccnc2)c(-c2ccccc2)oc2cc(O)ccc12` [2b, 3-((1H-imidazol-1-yl)methyl)-7-hydroxy-2-phenyl-4H-chromen-4-one], the values for the IC50 (in assay [1]; on aromatase (AR; CYP19A)) were more than 10 µM and 4 µM, respectively.

As to `CC/C(=C(\c1ccc(O)cc1)c1ccc(OCCNC)cc1)c1ccccc1` [Endoxifen], the IC50 in assay [1] is 0.043 µM; on aromatase (AR; CYP19A), more than 10 µM.

In the case of `N#Cc1ccc(C(c2ccc(C#N)cc2)n2cncn2)cc1` [Letrozole], the IC50 in assay [1] was more than 10 µM.

Broadly, the IC50 is the point on the concentration scale where inhibition reaches its midpoint.

The record behind these values is article PMC10096035, “Switching from Aromatase Inhibitors to Dual Targeting Flavonoid-Based Compounds for Breast Cancer Treatment” (Molecules, 2023).
